Results reported in patent US8058433B2, “Crystalline pharmaceutical” (Abbott Laboratories, priority 2000, dated 2011).

Assay: Hygroscopicity of the crystal form
Assay type: physicochemical
Conditions: unless maintained at about 0% relative humidity the form comprises greater than 0.5 molecules of water per molecule of lopinavir
Source text: The Type I hydrated crystal form of lopinavir comprising about 0.5 molecules of water per molecule of lopinavir is hygroscopic. Therefore, unless maintained under conditions of about 0% relative humidity, the Type I hydrated crystal form of lopinavir comprises greater than 0.5 molecules of water per molecule of lopinavir. If a Type I hydrated crystal form of lopinavir is dehydrated to below about 0.5 molecules of water per molecule of lopinavir, amorphous lopinavir is obtained.
The Type I crystal form of lopinavir comprising about 0.5 molecules of water per molecule of lopinavir has the powder X-ray diffraction pattern which appears in FIG. 1. The Type I crystal form of lopinavir comprising about 0.5 molecules of water per molecule of lopinavir has the solid state ^13C nuclear magnetic resonance spectrum, FT near infrared spectrum and FT mid infrared spectrum which appear in FIGS. 2, 3 and 4, respectively. The sample from which the infrared and nuclear magnetic resonance spectra were obtained may contain somewhat more than 0.5 molecules of water per molecule of lopinavir due to the hygroscopicity of the crystal form when the level of hydration is about 0.5 molecules of water per molecule of lopinavir.

hygroscopicity: hygroscopic
SMILES: Cc1cccc(C)c1OCC(=O)N[C@@H](Cc1ccccc1)[C@@H](O)C[C@H](Cc1ccccc1)NC(=O)[C@H](C(C)C)N1CCCNC1=O
